Experimental data: patent publication US4416888A, “3-(2-(4-Piperidyl)-1-alkyl-ethyl)-indoles and their use as medicaments” (Pharmindustrie, priority 1981, dated 1983)
Read-outs that look alike come from different tables or passages of the source.

Key:
[1] = test system: serotonin uptake by human blood platelets; test: Inhibition of serotonin uptake in human blood platelets; assay type: cell-based; details: Platelet, read-out: Inhibition of serotonin uptake I50
Excerpt: It is known that serotonin uptake by the blood platelets is a good model for the uptake of this amine by the neurons (cf. J. Tuomisto, J. Pharm., Pharmac., 26, 92 (1974). When applied to the study of medicaments, any method involving the use of blood platelets is of great interest because it allows the use of human cells, so that its estimation character is good.
"Platelets Function and Thrombosis, a Review of Methods" p. 335 (Plenum Press, London, 1972).
1. Inhibition of Serotonin Uptake
The results are expressed by inhibitory dose 50% or I50 which represents the dose of the product in micromoles per liter which reduce the rate of serotonin uptake by 50%.

[2] = test system: serotonin release, human blood platelets; test: Serotonin release from human blood platelets; assay type: cell-based; details: for activation at 50 µM: Platelet, product concentration 5 × 10^-5 moles per liter, increase relative to controls, human blood platelets, read-out: Percent of increased serotonin release
Description: "Platelets Function and Thrombosis, a Review of Methods" p.
The action of the products on serotonin release is tested at a concentration of 5×10^-5 moles per liter.

[3] = test system: male mice CD1 (Charles RIVER); test: Acute toxicity in male mice CD1, oral administration; assay type: in vivo; details: male CD1 mouse
Description: The acute toxicity of the products has been established in male mice CD1 (Charles RIVER) by oral administration. The compounds according to the invention are relatively not very toxic substances. For example, the product of Example 1 is non-toxic in the mouse if administered at a dose of 100 mg/kg.

Q: Which results are given for `CC(CC1CCNCC1)c1c[nH]c2ccccc12` (stereo not shown) [Example 1, 3-[2-(4-Piperidyl)-1-Methyl-Ethyl]-Indole]?
A: IC50 ([1]; Homo sapiens): 50 nM; activation at 50 µM [2]: 62%; Acute toxicity at 100 mg/kg [3]: non-toxic

Q: With `CC(N)Cc1ccc(Cl)cc1` (stereo not shown) [p-chloroamphetamine] as the molecule, how does the IC50 ([1]; Homo sapiens) read?
A: Its IC50 is 12000 nM.

Q: What about the activation at 50 µM [2] of the same molecule?
A: The activation at 50 µM was 51%.

Q: What about the “Serotonin release (in words)” value ([2]; compared with p-chloroamphetamine) of the same molecule?
A: Its value is “induce serotonin release”.

Q: With `c1ccc2c(CCC3CCNCC3)c[nH]c2c1` [Indalpine, 3-[2-(4-piperidyl)-ethyl]-indole] as the molecule, how does the IC50 ([1]; human blood platelets, dose reducing the rate of serotonin uptake by 50%) read?
A: The IC50 was 35 nM.

Q: And the activation at 50 µM [2]?
A: Its activation at 50 µM is 22%.

Q: How did the IC50 ([1]; Homo sapiens) turn out when `CN(C)CCCN1c2ccccc2CCc2ccccc21` [Imipramine] was run?
A: Its IC50 is 400 nM.

Q: And the activation at 50 µM [2]?
A: The activation at 50 µM was 12%.
